Measured values: patent US20110092456A1, “Methods of increasing cAMP levels and uses thereof” (priority 2009, published 2011)

Assays:
eNOS = experiment: Immunoblotting of myocardial eNOS, mouse; format: in vivo
Protocol: (§1) Protocol 1: Mice received 3-day pretreatment with: 1) SIT (300 mg/kg per day); 2) PIO (5 mg/kg per day); 3) SIT+PIO; or water alone (control). Drugs were suspended in water and administered by oral gavage once daily. On the 4th day, mice received intravenous H-89 (20 mg/kg) or vehicle (5% DMSO) (40). One hour after injection, mice underwent coronary artery ligation for 30 minutes followed by 4-hour reperfusion, or mice were euthanized under anesthesia and hearts were explanted without being subjected to ischemia. For immunoblotting and enzyme activity, hearts were rinsed in cold PBS (pH 7.4), containing 0.16 mg/ml heparin to remove red blood cells and clots, frozen in liquid nitrogen and stored at −80° C. for further analyses.
(§2) Myocardial samples from the risk zone of the anterior wall of the left ventricular wall exposed to ischemia-reperfusion (IR), or from the anterior wall of control hearts not exposed to ischemia were homogenized in lysis buffer (in mMol): 25 Tris.HCl (pH 7.4), 0.5 EDTA, 0.5 EGTA, 1 phenylmethylsulfonyl 193 fluoride, 1 dithiothreitol, 25 NaF, 1 Na3VO4, 1% Triton X-100, 2% SDS and 1% 194 protease inhibitor cocktail. The lysate was centrifuged at 10,000 g for 15 min at 4° C. The resulting supernatants were collected. Protein (50 μg) was fractionated by SDS-PAGE (4%-20% polyacrylamide gels) and transferred to PVDF membranes (Millipore, Bedford, Mass.). The membranes were incubated overnight at […] with primary antibodies. Bound antibodies were detected using the chemiluminescent substrate (NEN Life Science Products, Boston, Mass.). The protein signals were quantified 200 with an image-scanning densitometer, and the strength of each 201 protein signal was normalized to the corresponding β-actin signal. Data are expressed as percent of the expression in the 202 control group.

15dPGJ2 = experiment: Myocardial 15dPGJ2 levels, mouse; format: in vivo
Protocol: as §1
(§3) Myocardial samples of the anterior wall of the left ventricle were homogenized in cold PBS (pH 7.4), and centrifuged. The supernatants were collected and stored on ice. […] Each myocardial sample was tested in triplicate (the first without an inhibitor; the second with DuP-697, a specific COX2 inhibitor; and the third with Sc560, a specific COX1 inhibitor. COX1 activity was calculated as the difference between total COX activity in the sample without an inhibitor and the sample with Sc560, and COX2 activity as the difference between total COX activity in the sample without an inhibitor and the sample with DuP-697.

15-epi-lipoxinA4 = experiment: Myocardial 15-epi-lipoxinA4 levels, mouse; format: in vivo
Protocol: as §1
(§4) Myocardial samples of the anterior wall of the left ventricle were homogenized in cold PBS (pH 7.4), and centrifuged. The supernatants were collected and stored on ice. Measurement of 6-Keto-PGF1α, the stable metabolite of prostacyclin, 15dPGJ2, 15-epilipoxinA4, and PLA2 activity were made using immunoassay assay kits. The COX activity assay kit measures the peroxidase activity of COX, assayed colorimetrically by monitoring the appearance of oxidized N,N,N″,N″-tetramethyl-p-phenylenediamaine (TMPD) at 590 nm. Each myocardial sample was tested in triplicate (the first without an inhibitor; the second with DuP-697, a specific COX2 inhibitor; and the third with Sc560, a specific COX1 inhibitor. COX1 activity was calculated as the difference between total COX activity in the sample without an inhibitor and the sample with Sc560, and COX2 activity as the difference between total COX activity in the sample without an inhibitor and the sample with DuP-697.

COX2 = experiment: Myocardial COX2 activity, mouse; format: in vivo; settings: for COX2 activity: mice, 3-day pretreatment, words
Protocol: as §1, §4

[1] = test system: coronary artery ligation for 30 minutes followed by 4-hour reperfusion; experiment: Mouse coronary artery ligation/reperfusion infarct size; format: in vivo; settings: for IS, expressed as a percent of the left ventricle or a percent of the area at risk: words
Protocol: as §1
Protocol 2: Mice received 14-day pretreatment with: 1) SIT (300 mg/kg per day); 2) PIO (5 mg/kg per day); 3) SIT+PIO; or water alone (control), as above. Mice underwent coronary artery ligation for 30 minutes followed by 4-hour reperfusion. […] The chest was opened and the left coronary artery was encircled with a suture and ligated for 30 minutes. Ischemia was verified by regional dysfunction and discoloration of the ischemic zone.
Hearts were excised and the left ventricle was sliced transversely into 6 sections. Slices were incubated for 10 minutes at 37 C in 1% buffered (pH=7.4) 2,3,5-triphenyl tetrazolium-chloride (TTC), fixed in a 10% formaldehyde and photographed in order to identify the AR (uncolored by the blue dye), the IS (unstained by TTC), and the non ischemic zones (colored by blue dye). The area of AR and IS in each slice were determined by planimetry, converted into percentages of the whole for each slice, and multiplied by the weight of the slice. The results were summed to obtain the weight of the myocardial AR and IS (38, 39).

CREB = experiment: Immunoblotting of myocardial CREB, mouse; format: in vivo; settings: IR
Protocol: as §1, §2

Protein Kinase A (PKA) = experiment: Myocardial PKA activity, mouse; format: in vivo
Protocol: Protocol 1: Mice received 3-day pretreatment with: 1) SIT (300 mg/kg per day); 2) PIO (5 mg/kg per day); 3) SIT+PIO; or water alone (control). Drugs were suspended in water and administered by oral gavage once daily. […] One hour after injection, mice underwent coronary artery ligation for 30 minutes followed by 4-hour reperfusion, or mice were euthanized under anesthesia and hearts were explanted without being subjected to ischemia.

cPLA2 = experiment: Myocardial cPLA2 activity, mouse; format: in vivo; settings: for cPLA2 activity: mice, 3-day pretreatment, words
Protocol: as §1, §4

cAMP = experiment: Myocardial cAMP levels, mouse; format: in vivo; settings: for myocardial cAMP levels: mice, 3-day pretreatment, hearts not subjected to ischemia, words
Protocol: as §1
Myocardial samples from the anterior wall of the left ventricle of hearts that were not subjected to ischemia were homogenize in 1 ml cold extraction buffer [20 mM Tris-HCl (pH7.4), 0.5 mM EDTA, 0.5 mM EGTA, 10 mM β-mercaptoethanol, 1 mM phenylmethylsulfonyl fluoride, 0.1 mM dithiothreitol (DTT), 1 μg/ml leupeptin, 1 μg/ml aprotinin, 0.1% TritonX-100], centrifuged at 14,000×g for 15 min at 4° C., and the supernatants were collected. cAMP levels and PKA activity were measured using assay kits according to the manufacturer's instructions.

6-keto-PGF1α = experiment: Myocardial 6-keto-PGF1α levels, mouse; format: in vivo
Protocol: as §1, §3

[2] = test system: middle cerebral artery occlusion; settings: rat; 2 h occlusion, 24 h reperfusion; oral cilostazol 30 mg/kg, aspirin 300 mg/kg, clopidogrel 30 mg/kg; cited from earlier work
[3] = cited from earlier work
[4] = H-89 20 mg/kg i.v. after 3-day PIO, IR
[5] = H-89 20 mg/kg i.v. after 3-day SIT, IR
[6] = H-89 20 mg/kg i.v. after 3-day PIO
[7] = H-89 20 mg/kg i.v. after 3-day SIT
[8] = Protocol 1: mice, 3-day pretreatment (SIT 300 mg/kg per day, PIO 5 mg/kg per day), H-89 20 mg/kg i.v. alone
[9] = mice, 3-day pretreatment, IR-induced increase, immunoblot, words
[10] = mice, 3-day pretreatment, words
[11] = 50 patients, primary stenting for ST elevation acute myocardial infarction, cilostazol 100 mg BID versus aspirin alone

O=S(=O)(NCCNC/C=C/c1ccc(Br)cc1)c1cccc2cnccc12 [H-89]
Ser-633 P-eNOS levels: H-89 on the effect of PIO (eNOS; [4]): attenuated this increase
Ser-1177 P-eNOS levels: H-89 on the effect of PIO (eNOS; [4]): attenuated the effects of both SIT and PIO
Ser-633 P-eNOS levels: H-89 on the effect of SIT (eNOS; [5]): attenuated this increase
Ser-1177 P-eNOS levels: H-89 on the effect of SIT (eNOS; [5]): attenuated the effects of both SIT and PIO
15dPGJ2 levels: H-89 on the effect of PIO (15dPGJ2; [6]): did not block the effect of PIO
15-epi-lipoxinA4 levels: H-89 on the effect of PIO (15-epi-lipoxinA4; [6]): completely blocked the effect of both PIO and SIT
15-epi-lipoxinA4 levels: H-89 on the effect of SIT (15-epi-lipoxinA4; [7]): completely blocked the effect of both PIO and SIT
COX2 activity: H-89 on the PIO induced increase (COX2; [6]): did not block the PIO induced increase
COX2 activity: H-89 in combination with SIT (COX2; [7]): no effect on COX2 activity
COX2 activity (COX2): no effect on COX2 activity
IS, expressed as a percent of the left ventricle or a percent of the area at risk [1, 8]: no effect on IS
IS: effect of H-89 on the effect of PIO ([1]; Protocol 1, H-89 20 mg/kg i.v. one hour before ligation after 3-day PIO): only partially blocked the effect of PIO
IS: effect of H-89 on the effect of SIT ([1]; Protocol 1, H-89 20 mg/kg i.v. one hour before ligation after 3-day SIT): completely blocked the effect of SIT
levels of P-CREB: H-89 on the effect of PIO (CREB; [6]): blocked this effect of SIT and PIO
levels of P-CREB: H-89 on the effect of SIT (CREB; [7]): blocked this effect of SIT and PIO
PKA activity: H-89 on the PIO induced increase (Protein Kinase A (PKA); [6]): completely blocked
PKA activity: H-89 on the SIT induced increase (Protein Kinase A (PKA); [7]): completely blocked
cPLA2 activity: H-89 on the effect of PIO (cPLA2; [6]): did not block the effect of PIO
cPLA2 activity: H-89 in combination with SIT (cPLA2; [7]): no effect on cPLA2 activity
cPLA2 activity (cPLA2): no effect on cPLA2 activity
myocardial cAMP levels: H-89 on the SIT effect (cAMP; [7]): did not block the SIT effect
myocardial cAMP levels (cAMP): no effect on cAMP levels
6-keto-PGF1α levels: H-89 on the effect of PIO (6-keto-PGF1α; [6]): did not block the effect of PIO

N[C@@H](CC(=O)N1CCn2c(nnc2C(F)(F)F)C1)Cc1cc(F)c(F)cc1F [SIT, sitagliptin phosphate]
Ser-633 P-eNOS levels (eNOS; [9]): augmented this increase
Ser-1177 P-eNOS levels (eNOS; [9]): augmented this increase
total eNOS levels (eNOS; mice, 3-day pretreatment, ischemia-reperfusion (IR), immunoblot, words): no effect on total eNOS levels
15dPGJ2 levels (15dPGJ2; [10]): no effect
15-epi-lipoxinA4 levels (15-epi-lipoxinA4; [10]): significantly increased
COX2 activity (COX2): no effect on COX2 activity
IS, expressed as a percent of the left ventricle or a percent of the area at risk [1, 8]: significantly smaller
IS, expressed as a percent of the left ventricle or a percent of the area at risk ([1]; Protocol 2: mice, 14-day pretreatment (SIT 300 mg/kg per day, PIO 5 mg/kg per day)): significantly smaller
total CREB levels (CREB; mice, 3-day pretreatment, immunoblot, words): did not affect total CREB levels
levels of P-CREB (CREB; mice, 3-day pretreatment, versus control no IR or control IR, words): significantly higher
myocardial PKA activity (Protein Kinase A (PKA); mice, 3-day pretreatment, hearts not subjected to ischemia, words): augmented PKA activity
cPLA2 activity (cPLA2): but not SIT, augmented cPLA2 activity
myocardial cAMP levels (cAMP): significant increase
6-keto-PGF1α levels (6-keto-PGF1α; [10]): no effect

CC(=O)Oc1ccccc1C(=O)O [aspirin]
brain infarct size [2]: but not aspirin (300 mg/kg) or clopidogrel (30 mg/kg) reduced brain infarct size
6-month restenosis rate [3, 11]: 20%
target lesion revascularization [3, 11]: 16%
in-stent stenosis ([3]; 70 patients, Palmaz-Schatz stenting, cilostazol 200 mg/d, aspirin 81 mg/d): 26.8%

COC(=O)[C@H](c1ccccc1Cl)N1CCc2sccc2C1 [clopidogrel]
brain infarct size [2]: but not aspirin (300 mg/kg) or clopidogrel (30 mg/kg) reduced brain infarct size
